Data: patent publication US20100048713A1, “COMPOUNDS ACTING ON THE SEROTONIN TRANSPORTER” (Aarhus Universitet, priority 2006, published 2010)
pEC50, pIC50: −log10 of the molar value. “Also recorded” adds a separate entry of the source.

Tests used:
[1] = system: dorsal raphe 5-HT neurons; assay type: in vivo
Protocol: The experiments were carried out in male Sprague-Dawley rats weighing 250-300 g at the day of the recording. Prior to the acute study, a dose-response curve on the suppressive effect on neuronal firing of fluoxetine was constructed. Subsequently, in the acute study, 5 mg/kg 1-NSC was injected i.v. followed by administration of 1 mg/kg fluoxetine. In the chronic administration experiments, groups of rats were treated with fluoxetine (10 mg/kg/day), 1-NSC (2×10 mg/kg/day) or in combination for 7 days delivered subcutaneously (s.c.) with osmotic minipumps. Control rats received a minipump containing vehicle (NaCl 0.9%). The rats were tested with the minipumps in place.
Extracellular recordings were performed with single-barreled glass micropipettes preloaded with fiberglass filaments in order to facilitate filling. The tip was broken back to 2-4 μm and filled with a 2 M NaCl solution saturated with Pontamine Sky Blue to stain the location. The rats were placed in a stereotaxic frame and a burr hole was drilled on the midline, 1 mm anterior to lambda. Presumed DRN 5-HT neurons were encountered over a distance of 1 mm starting immediately below the ventral border of the Sylvius aqueduct. These neurons were identified using the criteria of Aghajanian (1978): a slow (0.5-2.5 Hz) and regular firing rate and long-duration (0.8-1.2 ms) positive action potentials; they were also verified to be located in DRN. WAY 100635 (N-{2-[4(2-methoxyphenyl)-1-piperazinyl]ethyl}-N-(2-pyridinyl)cyclohexanecarboxamide trihydrochloride; 50-100 μg/kg, i.v.) was used to reverse the suppressant effect of fluoxetine or fluoxetine/1-NSC on the firing activity of DRN 5-HT neurons. […] For the chronic studies, in order to determine the possible changes of the spontaneous firing activity of dorsal raphe 5-HT neurons, four to five electrode descents were carried out through this nucleus, in rats with minipumps in place.
The allosteric ligand 1-NSC was tested in vivo in Sprague-Dawley rats for the ability to interfere with fluoxetine-induced suppression of the neuronal firing rate (Assay 6).

hDAT = biological target: T1, hDAT (Homo sapiens, UniProt Q01959); assay: Binding of [125I]-RTI-55 in whole cell assay, cells transfected with human DAT; conditions: displacement of [125I]-RTI-55
T1 construct: expressed in transfected cells
T1 sequence (Q01959 whole entry): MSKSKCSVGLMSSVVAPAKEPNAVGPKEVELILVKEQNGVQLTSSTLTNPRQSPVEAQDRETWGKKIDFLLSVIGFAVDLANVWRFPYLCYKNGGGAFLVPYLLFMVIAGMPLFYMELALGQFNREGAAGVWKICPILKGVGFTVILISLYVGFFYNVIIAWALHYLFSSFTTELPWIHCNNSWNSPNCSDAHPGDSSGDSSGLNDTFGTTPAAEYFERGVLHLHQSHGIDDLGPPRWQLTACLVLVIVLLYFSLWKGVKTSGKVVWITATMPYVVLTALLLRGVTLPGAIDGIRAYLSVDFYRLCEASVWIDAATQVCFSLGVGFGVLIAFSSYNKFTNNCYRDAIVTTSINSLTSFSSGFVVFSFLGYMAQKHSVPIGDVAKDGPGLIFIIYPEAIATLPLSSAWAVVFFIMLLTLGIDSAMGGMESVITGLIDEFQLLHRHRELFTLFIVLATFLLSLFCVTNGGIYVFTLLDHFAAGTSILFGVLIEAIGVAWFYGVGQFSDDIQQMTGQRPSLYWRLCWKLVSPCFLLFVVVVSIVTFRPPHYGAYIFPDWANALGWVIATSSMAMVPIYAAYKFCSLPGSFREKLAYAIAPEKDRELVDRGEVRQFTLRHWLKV
Source text: A binding assay as described in example 2, wherein the cocaine analogue [^125I] RTI-55 was used to test for the compounds of the present invention to act as displacers of cocain.
(§1) Because RTI-55 (and cocaine) acts as inhibitors of SERT and DAT, we also performed the binding assay in cells transfected with human DAT.

hSERT [2] = biological target: T2, hSERT (Homo sapiens, UniProt P31645); assay: 5-HT uptake assay with preincubation (whole cells); assay type: cell-based; conditions: whole cell assay with preincubation (title 45 min, text 60 min), 75 nM [3H]-5-HT, 10 min
T2 construct: expressed in transfected cells; the general 96-well protocol names Cos-1
T2 sequence (P31645 whole entry): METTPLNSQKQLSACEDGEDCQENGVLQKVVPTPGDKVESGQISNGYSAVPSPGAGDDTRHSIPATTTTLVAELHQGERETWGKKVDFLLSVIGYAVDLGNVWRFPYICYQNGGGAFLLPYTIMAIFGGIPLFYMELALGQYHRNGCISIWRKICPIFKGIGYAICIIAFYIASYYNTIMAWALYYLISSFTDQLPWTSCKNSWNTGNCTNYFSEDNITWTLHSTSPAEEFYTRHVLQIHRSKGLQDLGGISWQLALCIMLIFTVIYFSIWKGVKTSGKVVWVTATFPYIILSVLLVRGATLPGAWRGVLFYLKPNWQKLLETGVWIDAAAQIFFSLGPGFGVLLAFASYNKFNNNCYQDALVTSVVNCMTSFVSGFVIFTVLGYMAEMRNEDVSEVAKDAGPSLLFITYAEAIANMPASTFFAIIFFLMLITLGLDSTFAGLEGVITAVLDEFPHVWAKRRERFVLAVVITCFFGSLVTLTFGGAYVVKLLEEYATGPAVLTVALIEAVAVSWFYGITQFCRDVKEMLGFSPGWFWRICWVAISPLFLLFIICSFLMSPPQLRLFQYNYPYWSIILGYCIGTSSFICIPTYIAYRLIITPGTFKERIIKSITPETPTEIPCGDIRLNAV
Protocol: 7 μl Fugene-6 was mixed with 112 μl Dulbecco's modified Eagle's medium, and incubated at room temperature for 5 minutes. 4 μg of plasmid were added and the mixture was further incubated at least 15 minutes. Cos-1 cells were trypsinized and suspended in growth media, and the plasmid/Fugene-6 mixture was added followed by dispersion into a 96-well plate.
The 96-well plate was washed with PBSCM to remove DMEM prior to the assay. 50 μl PBSCM containing increasing concentrations of allosteric ligand were added to each well, and incubated for 60 min at room temperature under moderate agitation. […] The plate was subsequently incubated for 10 min at room temperature. The assay was terminated by washing once with PBSCM. The amount of accumulated [^3H]-5-HT was determined by solubilizing cells in scintillant (MicroScint 20) with direct counting of plates in a Packard TopCounter. Data was analyzed by GraphPad software.
We tested the allosteric ligands for their ability to inhibit/activate 5-HT-uptake in the whole-cell assay after 60 minutes preincubation.

hSERT [3] = biological target: T2, hSERT; assay: Binding of [3H]-citalopram to membrane preparations; conditions: 35 nM [3H]-citalopram, 60 min RT
Protocol: (§2) 17.5 μl Fugene-6 (Roche Molecular Biochemicals) were mixed with 280 μl Dulbecco's modified Eagle's medium, and incubated at room temperature for 5 minutes. 10 μg of plasmid were added and the mixture was further incubated at least 15 minutes. […] Prior to harvesting the dish was rinsed in PBS. Cells were harvested with a cell scraper in buffer 1 (50 mM Tris-base, 150 mM NaCl, 20 mM EDTA, pH 7.4). After centrifugation (3000 g at 4° C. for 10 mins), cells were suspended and homogenized with an IKA Ultra-Turrax from Rose Scientific Ltd (Edmonton, Alberta, Canada) for 20 s in buffer 1. Membranes were pelleted by ultracentrifugation (12 000 g at 4° C. for 15 min) and homogenization was repeated in buffer 1. Finally, after ultracentrifugation (12000 g, 4° C., 15 min) membranes were resuspended in 1 ml buffer 3 (50 mM Tris-base, 120 mM NaCl, 5 mM KCl, pH 7.4) and stored at −80° C.
A dilution series of the allosteric ligand was prepared in buffer 3 containing 70 nM [^3H]-citalopram. […] The mixture was incubated under moderate agitation at RT for 60 min. Reactions were terminated by filtration through GF/C glass-fibre filters (Unifilter, Perkin Elmer Life Sciences), preincubated with 40 μl 0.5 % polyethyleneimine, using a Pachard Bell cell harvester, and subsequently washed three times with water. Filters were soaked in 40 μl Microscint 20 scintillation liquid (Pachard Bell). Bound radioactivity was determined by direct counting of plates using a Packard Bell microplate scintillation counter. Displacing curves were obtained by plotting residual binding vs. log concentration of the displacing ligand.

hSERT [4] = biological target: T2, hSERT; assay: 5-HT uptake assay, 10 min incubation without preincubation; assay type: cell-based; conditions: 75 nM [3H]-5-HT, no preincubation
Protocol: Cells were grown for 48 h to confluency, and prior to uptake assay, plates were washed in PBSCM. All washing steps were carried out in an automatic plate washer. […] The assay was terminated by washing with PBSCM. The amount of accumulated [^3H]-5HT was determined by solubilizing cells in scintillant (MicroScint 20) with direct counting of plates in a Packard TopCounter. Data was analyzed by GraphPad software.
(§3) Dissociation of [^3H]-citalopram from the serotonin transporter has been studied using membrane preparations from SERT-expressing cells. The off-rates of the radioligand were measured in the presence/absence of a fixed concentration of allosteric ligand. […] Additionally, the allosteric impact on the radioligand in the absence of citalopram, was studied by combining 10 μM fluoxetine and 200/2000 μM allosteric ligand in the dissociation buffer. […] The cells were incubated for 10 minutes before the assay was terminated by washing in PBSCM.

hSERT [5] = biological target: T2, hSERT; assay: Dissociation assay with [3H]-citalopram and hSERT membrane preparations; assay type: binding; conditions: for Stabilises dissociation of [3H]-citalopram: own effect (10 uM fluoxetine) (concentration which affects dissociation): 10 uM fluoxetine in dissociation buffer; for Stabilises dissociation of [3H]-citalopram: 15 uM citalopram (concentration which affects dissociation): 15 uM citalopram in dissociation buffer
Protocol: as §2
Dissociation assay with [^3H]-citalopram and membrane preparations SERT-[^3H]-citalopram complex was formed by incubating hSERT membrane preparation and radioligand in buffer 3 during a 60 min incubation at 4° C. Radioligand was present at a concentration 10 times the Kd value. The time kinetic of dissociation was followed by adding 10 μL complex solution to 250 μL buffer 3 in 96-well plates and incubating subsequently for increasing time intervals at RT. Reactions were terminated by filtration through GF/C glass-fibre filters (Unifilter, Perkin Elmer Life Sciences), preincubated with 40 μl 0.5 % polyethyleneimine, using a Pachard Bell cell harvester, and subsequently washed three times with water. Filters were soaked in 40 μl Microscint 20 scintillation liquid (Pachard Bell). Bound radioactivity was determined by direct counting of plates using a Packard Bell microplate scintillation counter. Dissociation curves were obtained by plotting residual binding vs. time of dissociation.
The interaction of the allosteric ligand with the allosteric mechanism used by citalopram was studied by combining allosteric ligand and citalopram in the dissociation buffer. The interaction of the allosteric ligand with the radioligand was studied by combining the allosteric ligand and fluoxetine in the dissociation buffer.
as §3

hSERT [6] = biological target: T2, hSERT; assay: Binding assay on whole cells transfected with hSERT ([3H]-citalopram displacement); conditions: whole cell assay, 35 nM [3H]-citalopram, 60 min room temperature; table title: 45 min preincubation
Protocol: The pcDNA3 plasmid vector containing the hSERT gene was used for transfection (see FIG. 6).
The 96-well plate was washed with PBSCM to remove DMEM prior to the assay. […] The plate was subsequently incubated for 60 min at room temperature. The assay was terminated by washing once with PBSCM. The amount of accumulated [^3H]-citalopram was determined by solubilizing cells in scintillant (MicroScint 20) with direct counting of plates in a Packard TopCounter. Data was analyzed by GraphPad software.

hSERT [7] = biological target: T2, hSERT; assay: Binding of [125I]-RTI-55 in whole cell assay, hSERT; conditions: displacement of [125I]-RTI-55
Source text: RTI-55 was used to test for the compounds of the present invention to act as displacers of cocain.
as §1

## COc1ccccc1N1CCN(CCN(C(=O)C2CCCCC2)c2ccccn2)CC1.Cl.Cl.Cl [Way 100,635, N-{2-[4(2-methoxyphenyl)-1-piperazinyl]ethyl}-N-(2-pyridinyl)cyclohexanecarboxamide trihydrochloride, reference compound]
[1]; 50-100 ug/kg i.v. after fluoxetine or fluoxetine/1-NSC, trihydrochloride
  reversal of suppression of the neuronal firing rate: reverses the suppressive effect of fluoxetine on the neuronal firing rate; also recorded: completely restored the neuronal firing rate

## Cc1ccc(S(=O)(=O)n2ccnc2)cc1 [TS14]
hDAT
  EC50: 1280 µM
hSERT [2]
  pIC50: 2.74
hSERT [3]
  Binding of [3H]-citalopram (Bmax): No effect
hSERT [4]
  5-HT uptake (effect): No effect
hSERT [5]
  Stabilises dissociation of [3H]-citalopram: own effect (10 uM fluoxetine) (concentration which affects dissociation): 2000 µM
  Stabilises dissociation of [3H]-citalopram: 15 uM citalopram (concentration which affects dissociation): 2000 µM
hSERT [6]
  pEC50: 2.90
hSERT [7]
  EC50: 2310 µM

## CNCCC(Oc1ccc(C(F)(F)F)cc1)c1ccccc1 (stereo not drawn) [fluoxetine, reference compound]
[1]; chronic treatment 7 days s.c. minipumps, rats (FIG. 2)
  recovery of the firing rates: 30%

## O=S(=O)(Cl)c1cccc2ccccc12 [1-NSC, 1-naphthalenesulfonyl chloride]
hSERT [3]
  Binding of [3H]-citalopram (Bmax): Displace
hSERT [4]
  5-HT uptake (effect): Increase
hSERT [5]
  Stabilises dissociation of [3H]-citalopram: own effect (10 uM fluoxetine) (concentration which affects dissociation): 2000 µM
  Stabilises dissociation of [3H]-citalopram: 15 uM citalopram (concentration which affects dissociation): 2000 µM
[1]; acute injection, restored within minutes (FIG. 1)
  effect of 1-NSC alone on neuronal firing rate: small decrease in neuronal firing rate
[1]; acute study, 5 mg/kg 1-NSC then 1 mg/kg fluoxetine, DRN (FIG. 1)
  effect on fluoxetine-induced suppression of the neuronal firing rate: acutely enhances the fluoxetine-induced suppression of the neuronal firing rate; also recorded: potentiation of the fluoxetine-induced suppression of the neuronal firing rate
[1]; chronic treatment, 7 day period
  recovery of dorsal raphe 5-HT neuronal firing of fluoxetine treated rats (FIG. 2): potentiated
[1]; doses used in the experiments of FIGS. 1 and 2, rats
  toxic side effects: no apparent toxic side effects
